The results in this text go back to patent US20100160356A1, “NOVEL CYCLOBUTYL COMPOUNDS AS KINASE INHIBITORS” (priority 2006, published 2010).

Values after ≈ are worked out from the molar mass of the structure shown. Bounds are passed on as bounds.

A short description of series [1]: Solubility in phosphate buffer by the shake flask method. In kind it is physicochemical. As to conditions: 37 °C, pH 7, aqueous buffer, thermodynamic from solid, pH 7.0, 37° C., 24 h shake flask. Here is the method:
The procedure described in Glomme et al. (J. Pharm. Sci. 94(1): 1-16, 2005) is followed. The concentration determination is carried out by HPLC with UV detection against a standard solution.
Buffer: 3.954 g of sodium dihydrogenphosphate monohydrate 6.024 g of sodium chloride +950 ml of ultrapure water. Setting of pH 7.0 using 0.1 M NaOH or 0.1 M HCl.
The samples were shaken at 37° C. and 450 rpm for 24 h. After about 7 h, the pH of the samples was checked and adjusted if necessary. It was checked whether the sample was still present in excess. Just before the end of the 24 h shaking time, the samples were again checked for pH and a precipitate.
• Ultrapure water plant: MilliQ gradient, Millipore, unit: F3PN37462D • Shaker: TiMix control, Bühler • Incubation hood: TH 15, Bühler • pH meter: 766 Calimatic Knick instrument: pH 1 • pH electrode: InLab 423 Mettler • HPLC: column: LiChroCart 125-4 LiChrospher 100 RP-18 • flow rate: 1.000 ml/min • eluents: • eluent A: 2 ml of diethylamine, for synthesis+1000 ml of methanol, LiChrosolv • eluent B: 5 g of ammonium acetate, for analysis+5 ml of methanol, LiChrosolv+995 ml of ultrapure water

Series [2] has as its target T1, FAK (focal adhesion kinase) (Homo sapiens, UniProt Q05397).
T1 construct: endogenous in cells; host or cells: Calu-6 or HT-29
The experiment in a line: Inhibition of FAK (ELISA assay), FAK phosphorylation in cells. To be noted: human cells with FAK amplification. The series is classed as cell-based. The protocol:
Activated FAK promotes the invasive growth of tumour cells and inhibits anoikis.
The amount of phosphorylated FAK is determined by a specific capture ELISA or an analogous LUMINEX assay. FAK from cell lysates is bound to a 96-well ELISA plate or LUMINEX beads by means of a specific antibody (“capturing”), and the tyrosine phosphorylation is detected using a biotin-labelled anti-phosphotyrosine antibody and a streptavidin-peroxidase conjugate by a chemiluminescence method or by means of a fluorescence-labelled anti-phosphotyrosine antibody.
For determination of the activity of kinase inhibitors, cells are pretreated with increasing concentrations of these compounds for 45 min, and the FAK phosphorylation is then determined. As internal control, a concentration series of a reference inhibitor is measured.
In general terms: ELISA stands for enzyme-linked immunosorbent assay.

A further series concerns the target PDGFRβ (Homo sapiens, UniProt P09619). In words: Inhibition of PDGFRβ (flashplate assay). In kind it is biochemical. To be noted: flashplate method. The protocol:
(§1) The test plates used are 96-well flashplate microtitre plates from Perkin Elmer (USA). The components of the kinase reaction are pipetted into the assay plate. The PDGFRβ kinase is incubated for 3 hr. with radioactively labelled ^33P-ATP in the presence and absence of test substances in a total volume of 100 μl at room temperature (here autophosphorylation of the kinase). The reaction is terminated using 150 μl of a 60 mM EDTA solution. After incubation for a further 30 min at room temperature, the supernatants are removed by suction, and the wells are washed three times with 200 μl of 0.9% NaCl solution each time. The radioactivity is measured using a Topcount scintillation counter (PerkinElmer, USA). IC50 values are calculated using the RS1 computer program.

Another series addresses T2, TGFβR1 (Homo sapiens, UniProt P36897).
T2 sequence (P36897 34-503): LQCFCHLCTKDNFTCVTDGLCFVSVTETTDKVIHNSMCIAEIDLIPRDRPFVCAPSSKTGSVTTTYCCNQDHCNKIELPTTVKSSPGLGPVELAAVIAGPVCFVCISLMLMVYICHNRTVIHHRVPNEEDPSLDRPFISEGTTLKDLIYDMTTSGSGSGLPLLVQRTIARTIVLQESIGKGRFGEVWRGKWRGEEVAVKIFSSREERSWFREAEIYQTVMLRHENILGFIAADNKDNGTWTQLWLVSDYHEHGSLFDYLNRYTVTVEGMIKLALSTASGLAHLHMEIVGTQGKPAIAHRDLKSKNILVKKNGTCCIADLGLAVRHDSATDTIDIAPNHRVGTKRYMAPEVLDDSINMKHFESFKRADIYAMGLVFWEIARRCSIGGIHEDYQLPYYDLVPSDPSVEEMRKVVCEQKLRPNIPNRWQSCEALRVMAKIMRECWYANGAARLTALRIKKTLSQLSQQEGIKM
The experiment in a line: Inhibition of TGFβR1 (flashplate assay). The series is classed as biochemical. To be noted: flashplate method. The protocol: The test is carried out as described in Example B1b for IGF1R. A biotinylated is added to the TGFβR1 kinase.
The kinase assay is carried out as a 384-well flashplate assay.
The components of the kinase reaction are pipetted into the assay plate. The TGFβR1 kinase is incubated for 45 min with radioactively labelled ^33P-ATP in the presence and absence of test substances together with biotinylated substrate in a total volume of 35 μl. The reaction is terminated using 25 μl of 200 mM EDTA solution, removed by suction after 30 min at room temperature, and the wells are washed with three times with 100 μl of 0.9% NaCl solution each time. The radioactivity is measured using a Topcount scintillation counter (PerkinElmer, USA). IC50 values are calculated using the RS1 computer program.

The target in the next series is TIE2 (Homo sapiens, UniProt Q02763). In words: Inhibition of TIE2 (flashplate assay). In kind it is biochemical. As to conditions: flashplate method. The protocol:
B4: inhibition of T1E2 (Flashplate Assay)
as §1, with “384-well” for “96-well”, “TIE2” for “PDGFRβ”, “together with biotinylated poly(Glu, Tyr)4:1.” for “(here autophosphorylation of the kinase).”, “25” for “150”, “200” for “60”, “100” for “200”

The next series deals with IGF1R (Homo sapiens, UniProt P08069). In words: Inhibition of IGF1R (flashplate assay). In kind it is biochemical. To be noted: flashplate method. Here is the method:
as §1, with “The IGF1R” for “The PDGFRβ”, “for 1” for “for 3”, “temperature together with biotinylated poly(Glu, Tyr)4:1.” for “temperature (here autophosphorylation of the kinase).”, “using 25” for “using 150”, “a 200” for “a 60”, “with 100” for “with 200”

A further series concerns the target VEGF-2 (Homo sapiens, UniProt P35968). The experiment in a line: Inhibition of VEGF-2 (flashplate assay). The series is classed as biochemical. As to conditions: flashplate method. Here is the method: as §1, with “384-well” for “96-well”, “VEGF-2” for “PDGFRβ”, “together with biotinylated poly(Glu, Tyr)4:1.” for “(here autophosphorylation of the kinase).”, “25” for “150”, “200” for “60”, “100” for “200”

The next series concerns the target T3, IGF1 receptor (IGF1R) (Homo sapiens, UniProt P08069).
T3 construct: endogenous in cells; host or cells: MCF-7 or Calu-6
The experiment in a line: Inhibition of IGF1R (ELISA assay), IGF1-stimulated autophosphorylation in cells. In kind it is cell-based. To be noted: human tumour cells stimulated with IGF1, read-out: IC50 IGF (ELISA). Here is the method: The stimulation induces an autophosphorylation of tyrosine residues in the cytoplasmatic IGF1R domain, which triggers signal transduction cascades, which result in inhibition of apoptosis and proliferation of the cells.
The amount of phosphorylated IGF1R is determined by a receptor-specific capture ELISA or an analogous LUMINEX assay. The IGF1R from cell lysates is bound to a 96-well ELISA plate or LUMINEX beads by means of a specific antibody (“capturing”), and the tyrosine phosphorylation is detected using a biotin-labelled anti-phosphotyrosine antibody and a streptavidin-peroxidase conjugate by a chemiluminescence method or by means of a fluorescence-labelled anti-phosphotyrosine antibody.
For determination of the activity of kinase inhibitors, cells are pretreated with increasing concentrations of these compounds for 45 min and subsequently stimulated using IGF1 for 5 min. As internal control, the biological activity of the ligand IGF1 is checked, and a concentration series of an IGF1R reference inhibitor is measured.

Chain of PDGFRβ (P09619 33-1106, species assumed): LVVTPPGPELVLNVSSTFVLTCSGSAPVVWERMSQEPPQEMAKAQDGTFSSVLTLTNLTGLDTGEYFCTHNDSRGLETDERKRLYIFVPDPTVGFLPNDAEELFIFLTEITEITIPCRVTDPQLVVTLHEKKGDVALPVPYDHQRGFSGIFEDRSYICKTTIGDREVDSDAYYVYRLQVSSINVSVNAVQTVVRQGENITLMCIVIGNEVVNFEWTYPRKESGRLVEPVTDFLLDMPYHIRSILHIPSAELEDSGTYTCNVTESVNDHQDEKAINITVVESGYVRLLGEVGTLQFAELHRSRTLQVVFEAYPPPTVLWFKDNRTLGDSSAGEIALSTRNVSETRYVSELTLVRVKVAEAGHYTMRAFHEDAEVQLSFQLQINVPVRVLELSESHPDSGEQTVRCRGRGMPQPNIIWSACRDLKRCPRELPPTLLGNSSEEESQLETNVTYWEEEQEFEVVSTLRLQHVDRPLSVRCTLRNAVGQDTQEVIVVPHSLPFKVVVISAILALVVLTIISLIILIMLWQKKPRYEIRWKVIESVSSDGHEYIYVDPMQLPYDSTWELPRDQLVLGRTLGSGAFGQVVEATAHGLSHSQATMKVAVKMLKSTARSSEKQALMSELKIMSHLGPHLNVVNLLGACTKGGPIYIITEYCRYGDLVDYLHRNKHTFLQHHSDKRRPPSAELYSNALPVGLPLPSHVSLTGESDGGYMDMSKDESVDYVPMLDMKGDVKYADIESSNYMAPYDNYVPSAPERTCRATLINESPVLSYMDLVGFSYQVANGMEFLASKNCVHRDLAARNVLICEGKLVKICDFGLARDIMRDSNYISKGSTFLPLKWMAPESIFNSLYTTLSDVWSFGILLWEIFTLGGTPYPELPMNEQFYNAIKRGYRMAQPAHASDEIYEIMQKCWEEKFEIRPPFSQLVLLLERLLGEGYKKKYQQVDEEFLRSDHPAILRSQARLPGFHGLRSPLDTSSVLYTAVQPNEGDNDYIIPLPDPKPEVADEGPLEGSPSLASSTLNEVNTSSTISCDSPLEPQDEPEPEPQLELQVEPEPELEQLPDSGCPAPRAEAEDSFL
Chain of TIE2 (Q02763 23-1124, species assumed): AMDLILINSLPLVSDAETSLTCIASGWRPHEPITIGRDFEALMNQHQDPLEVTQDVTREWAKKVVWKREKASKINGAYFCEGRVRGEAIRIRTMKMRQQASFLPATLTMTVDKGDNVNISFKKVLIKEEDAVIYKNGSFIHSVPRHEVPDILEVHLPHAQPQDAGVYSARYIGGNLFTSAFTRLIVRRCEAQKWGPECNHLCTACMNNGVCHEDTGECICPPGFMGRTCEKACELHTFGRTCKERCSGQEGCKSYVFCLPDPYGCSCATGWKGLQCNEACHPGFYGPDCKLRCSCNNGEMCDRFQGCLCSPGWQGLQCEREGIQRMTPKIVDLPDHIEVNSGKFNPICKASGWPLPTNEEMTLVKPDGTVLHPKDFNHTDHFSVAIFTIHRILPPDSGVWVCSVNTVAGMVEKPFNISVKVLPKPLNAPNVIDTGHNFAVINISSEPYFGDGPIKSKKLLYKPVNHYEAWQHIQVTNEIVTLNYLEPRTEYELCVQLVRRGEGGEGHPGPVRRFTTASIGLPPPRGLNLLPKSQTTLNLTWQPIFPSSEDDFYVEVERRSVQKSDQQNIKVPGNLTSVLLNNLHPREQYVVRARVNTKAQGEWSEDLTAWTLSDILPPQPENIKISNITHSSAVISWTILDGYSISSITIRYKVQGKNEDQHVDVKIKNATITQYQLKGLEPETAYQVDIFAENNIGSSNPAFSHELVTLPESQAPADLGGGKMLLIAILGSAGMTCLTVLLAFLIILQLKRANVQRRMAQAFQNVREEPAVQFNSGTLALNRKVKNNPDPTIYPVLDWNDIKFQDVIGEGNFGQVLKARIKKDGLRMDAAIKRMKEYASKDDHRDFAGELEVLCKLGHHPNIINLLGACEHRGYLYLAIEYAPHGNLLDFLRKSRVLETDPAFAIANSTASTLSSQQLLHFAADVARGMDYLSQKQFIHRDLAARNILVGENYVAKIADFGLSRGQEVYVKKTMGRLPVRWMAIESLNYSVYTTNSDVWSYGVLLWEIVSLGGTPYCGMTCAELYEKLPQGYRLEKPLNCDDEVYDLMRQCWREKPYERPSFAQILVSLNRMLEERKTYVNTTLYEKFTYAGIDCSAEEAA
T1 sequence (Q05397 whole entry): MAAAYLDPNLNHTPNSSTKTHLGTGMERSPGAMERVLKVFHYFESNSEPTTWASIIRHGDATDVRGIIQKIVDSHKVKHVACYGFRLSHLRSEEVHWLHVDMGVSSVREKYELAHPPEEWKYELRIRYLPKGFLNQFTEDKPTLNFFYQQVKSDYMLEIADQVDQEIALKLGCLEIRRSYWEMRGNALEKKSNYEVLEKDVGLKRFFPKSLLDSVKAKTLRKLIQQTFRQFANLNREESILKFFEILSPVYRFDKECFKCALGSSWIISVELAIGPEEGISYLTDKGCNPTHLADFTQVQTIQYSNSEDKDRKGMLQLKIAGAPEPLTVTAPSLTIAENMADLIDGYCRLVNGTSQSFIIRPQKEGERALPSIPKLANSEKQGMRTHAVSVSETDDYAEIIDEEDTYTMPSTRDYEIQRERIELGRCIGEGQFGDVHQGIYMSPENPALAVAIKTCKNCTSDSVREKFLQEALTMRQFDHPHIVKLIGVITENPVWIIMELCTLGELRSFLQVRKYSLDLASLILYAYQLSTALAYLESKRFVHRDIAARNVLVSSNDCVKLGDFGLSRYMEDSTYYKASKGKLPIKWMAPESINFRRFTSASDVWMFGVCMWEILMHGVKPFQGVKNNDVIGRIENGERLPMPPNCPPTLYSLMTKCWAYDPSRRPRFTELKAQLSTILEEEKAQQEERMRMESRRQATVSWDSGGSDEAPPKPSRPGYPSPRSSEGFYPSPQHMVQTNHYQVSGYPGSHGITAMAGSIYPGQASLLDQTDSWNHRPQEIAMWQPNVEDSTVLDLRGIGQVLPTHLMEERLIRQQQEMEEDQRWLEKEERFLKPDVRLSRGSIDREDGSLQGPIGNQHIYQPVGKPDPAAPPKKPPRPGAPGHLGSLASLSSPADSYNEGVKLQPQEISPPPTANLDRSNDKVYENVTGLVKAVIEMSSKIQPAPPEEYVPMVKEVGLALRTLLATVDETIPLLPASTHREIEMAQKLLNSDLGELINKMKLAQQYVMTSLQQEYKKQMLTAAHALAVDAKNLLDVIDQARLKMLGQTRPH
T3 sequence (P08069 31-1367): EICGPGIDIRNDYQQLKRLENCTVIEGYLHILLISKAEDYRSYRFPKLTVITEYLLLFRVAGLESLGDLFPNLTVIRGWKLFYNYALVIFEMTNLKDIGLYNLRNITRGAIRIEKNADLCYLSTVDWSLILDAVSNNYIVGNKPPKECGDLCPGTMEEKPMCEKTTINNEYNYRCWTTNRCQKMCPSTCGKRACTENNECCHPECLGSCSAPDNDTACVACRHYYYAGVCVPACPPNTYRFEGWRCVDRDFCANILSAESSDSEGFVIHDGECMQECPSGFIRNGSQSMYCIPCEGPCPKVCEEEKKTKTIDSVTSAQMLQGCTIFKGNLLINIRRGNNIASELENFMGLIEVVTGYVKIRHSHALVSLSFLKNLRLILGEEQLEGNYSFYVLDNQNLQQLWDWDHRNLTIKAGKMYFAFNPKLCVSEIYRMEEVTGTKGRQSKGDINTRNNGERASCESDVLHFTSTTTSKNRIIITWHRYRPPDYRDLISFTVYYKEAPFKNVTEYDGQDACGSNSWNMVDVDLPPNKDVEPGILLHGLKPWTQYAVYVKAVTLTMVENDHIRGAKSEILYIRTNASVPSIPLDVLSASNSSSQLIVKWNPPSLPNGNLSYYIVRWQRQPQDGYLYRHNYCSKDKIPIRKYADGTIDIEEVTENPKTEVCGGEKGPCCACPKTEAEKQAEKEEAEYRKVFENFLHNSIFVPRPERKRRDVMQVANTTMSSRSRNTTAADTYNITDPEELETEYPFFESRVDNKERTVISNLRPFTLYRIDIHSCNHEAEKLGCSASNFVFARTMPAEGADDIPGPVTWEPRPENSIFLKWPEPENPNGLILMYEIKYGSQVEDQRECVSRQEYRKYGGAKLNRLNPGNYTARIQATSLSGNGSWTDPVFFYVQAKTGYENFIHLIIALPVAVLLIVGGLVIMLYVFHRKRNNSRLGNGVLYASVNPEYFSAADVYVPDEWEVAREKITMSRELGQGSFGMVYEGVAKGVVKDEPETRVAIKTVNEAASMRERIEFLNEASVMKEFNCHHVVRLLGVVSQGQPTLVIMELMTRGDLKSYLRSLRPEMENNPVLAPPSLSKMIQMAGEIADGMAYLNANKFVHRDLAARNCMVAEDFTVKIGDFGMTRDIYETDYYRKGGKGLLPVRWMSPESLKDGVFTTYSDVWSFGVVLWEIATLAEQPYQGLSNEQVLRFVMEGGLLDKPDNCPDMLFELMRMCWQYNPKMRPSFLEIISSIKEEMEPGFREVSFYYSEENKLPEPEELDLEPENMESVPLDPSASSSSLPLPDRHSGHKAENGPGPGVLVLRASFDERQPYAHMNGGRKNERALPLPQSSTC
Chain of IGF1R (P08069 31-1367, species assumed): as the sequence (P08069 31-1367) above

As usually defined, the solubility is how much of the substance goes into solution per volume. In the case of `Nc1ncnc2c1c(-c1cccc(OCc3ccccc3)c1)cn2C1CC(CN2C(=O)c3ccccc3C2=O)C1` (centres unmarked) [2-{3-[4-Amino-5-(3-benzyloxyphenyl)pyrrolo[2,3-d]pyrimidin-7-yl]cyclobutylmethyl}isoindole-1,3-dione, reference compound], in [1], the solubility at 24 h was < 1 µg/mL.

In turn, `Nc1ncnc2c1c(-c1cccc(OCc3ccccc3)c1)cn2C1CC(CN2CCCC2)C1` (centres unmarked) [5-(3-Benzyloxyphenyl)-7-(3-pyrrolidin-1-ylmethyl-cyclobutyl)-7H-pyrrolo[2,3-d]pyrimidin-4-ylamine, reference compound] returned a solubility at 24 h in series [1] of 53 µg/mL (≈ 117 µM).

`NCC1CC(n2cc(-c3cccc(OCc4ccccc4)c3)c3c(N)ncnc32)C1` (centres unmarked) [7-(3-Aminomethylcyclobutyl)-5-(3-benzyloxyphenyl)-7H-pyrrolo[2,3-d]pyrimidin-4-ylamine, reference compound] returned a solubility at 24 h in [1] of 233 µg/mL (≈ 583 µM).

In general, melting point refers to the temperature of the solid-liquid transition. The IC50 is the midpoint of a concentration-inhibition curve. As for `NCC1CC(n2cc(-c3ccccc3)c3c(N)ncnc32)C1` (centres unmarked) [Compound 4], the melting point fell in the range of 84 to 86 °C. The compound also yielded a 50% inhibitory concentration (IC50) in [2] of 1100 nM. The same compound had an IC50 on PDGFRβ of 920 nM. On TGFβR1, this compound gave an IC50 of 2800 nM. The IC50 on TIE2 was 7400 nM. The compound also returned an IC50 on IGF1R of 7400 nM. Also, it took 1100 nM to reach half-maximal inhibition on VEGF-2 (IC50).

With `NCC1CC(n2cc(-c3cccc(F)c3)c3c(N)ncnc32)C1` (centres unmarked) [Compound 6, 7-(3-aminomethylcyclobutyl)-5-(3-fluorophenyl)-7H-pyrrolo[2,3-d]pyrimidin-4-ylamine], the melting point was 101 to 102 °C. In series [2], this compound showed an IC50 of 1400 nM. Besides, the IC50 on PDGFRβ amounted to 700 nM. In addition, on TGFβR1, the midpoint of inhibition, the IC50, lay at 1700 nM. The compound also came in with an IC50 at IGF1R of 7500 nM. For the same compound, the IC50 at VEGF-2 worked out at 1800 nM.

As for `CS(=O)(=O)c1cccc(-c2cn(C3CC(CN)C3)c3ncnc(N)c23)c1` (centres unmarked) [Compound 11, 7-(3-Aminomethylcyclobutyl)-5-(3-methanesulfonyl-phenyl)-7H-pyrrolo[2,3-d]pyrimidin-4-ylamine], the IC50 was 28000 nM in [2] and 10000 nM at IGF1 receptor (IGF1R). In addition, in [1], the solubility at 24 h is > 1000 µg/mL.

Regarding `NCC1CC(n2cc(-c3ccc(N)cc3)c3c(N)ncnc32)C1` (centres unmarked) [Compound 24], the half-maximal inhibitory concentration (IC50) was found to be 3300 nM in [2]; 630 nM on PDGFRβ; 1500 nM at TIE2; 9200 nM on IGF1 receptor (IGF1R); 2300 nM on IGF1R; 630 nM on VEGF-2.

Compound `NCC1CC(n2cc(-c3ccc4c(c3)OCCO4)c3c(N)ncnc32)C1` (centres unmarked) [Compound 53] yielded a melting point of 324 to 325.5 °C. Moreover, the IC50 in series [2] stood at 1900 nM. The same compound registered a half-maximal inhibitory concentration (IC50) at PDGFRβ of 1100 nM. Moreover, on TGFβR1, the midpoint of inhibition, the IC50, lay at 1600 nM. The IC50 against TIE2 was determined as 2000 nM. Also, at IGF1 receptor (IGF1R), the 50% inhibitory concentration (IC50) was 5300 nM. The IC50 on VEGF-2 was found to be 1400 nM.

Regarding `NCC1CC(n2cc(-c3ccc4ccn(Cc5ccccc5)c4c3)c3c(N)ncnc32)C1` (centres unmarked) [Compound 55], the IC50 in series [2] stood at 24000 nM; against TIE2, 680 nM; at IGF1 receptor (IGF1R), 3500 nM; at IGF1R, 1600 nM; at VEGF-2, 190 nM.

Turning to `NCC1CC(n2cc(-c3ccc4c(ccn4Cc4ccccc4)c3)c3c(N)ncnc32)C1` (centres unmarked) [Compound 56], the IC50 at TGFβR1 came to 5000 nM; against TIE2, 495 nM; at IGF1 receptor (IGF1R) it was 4100 nM; at IGF1R it was 1400 nM; at VEGF-2, 61 nM.

Turning to `CC(=O)NCC1CC(n2cc(-c3cccc(OCc4ccccc4)c3)c3c(N)ncnc32)C1` (centres unmarked) [N-{3-[4-Amino-5-(3-benzyloxyphenyl)pyrrolo[2,3-d]pyrimidin-7-yl]cyclobutylmethyl}acetamide, reference compound], the concentration in solution in series [1] (solubility at 24 h) was 5 µg/mL (≈ 11.3 µM).

With `Nc1ncnc2c1c(-c1cccc(OCc3ccccc3)c1)cn2C1CC(CNC(=O)N2CCCCC2)C1` (centres unmarked) [Piperidine-1-carboxylic acid {3-[4-amino-5-(3-benzyloxy-phenyl)pyrrolo[2,3-d]pyrimidin-7-yl]cyclo-butylmethyl}amide, reference compound], the solubility at 24 h in series [1] is < 1 µg/mL.
